Oligonucleotides are written 5' to 3', each unit as a sugar letter and its base; * is a phosphorothioate linkage, no mark a phosphodiester; rarer units and linkages stand in square brackets, end groups in braces. Plain capitals give the bases only. d = 2'-deoxy (DNA); r = 2'-OH (RNA)
Target: RHOQ
Assay: reporter assay of Huesken 2005
Conditions: siRNA
Note: test concentration or dose not given here.

Row | Substance | normalised inhibition (eCFP-eYFP dual reporter) [%]
1 | sense rArArUrArUrArArGrCrArUrCrArCrCrUrUrCrCdTdT / antisense rGrGrArArGrGrUrGrArUrGrCrUrUrArUrArUrUdTdT | 51.8
2 | sense rArUrArArArUrCrArArUrUrArArCrArUrArUrUdTdT / antisense rArArUrArUrGrUrUrArArUrUrGrArUrUrUrArUdAdC | 38.4
3 | sense rGrCrArUrCrArGrArUrArArUrGrGrUrGrUrUrAdTdT / antisense rUrArArCrArCrCrArUrUrArUrCrUrGrArUrGrCdAdT | 92.8
4 | sense rCrArCrArUrUrArArArGrUrArUrCrArUrGrGrCdTdT / antisense rGrCrCrArUrGrArUrArCrUrUrUrArArUrGrUrGdAdA | 62.4
5 | sense rCrUrCrArArArUrGrGrArArUrCrUrUrArUrGrUdTdT / antisense rArCrArUrArArGrArUrUrCrCrArUrUrUrGrArGdCdA | 55.5
6 | sense rArArUrGrCrUrCrArUrArUrCrArGrUrCrArCrAdTdT / antisense rUrGrUrGrArCrUrGrArUrArUrGrArGrCrArUrUdTdA | 76
7 | sense rCrArUrGrCrArUrCrArGrArUrArArUrGrGrArUdTdT / antisense rArUrCrCrArUrUrArUrCrUrGrArUrGrCrArUrGdGdC | 72.3
8 | sense rCrArArArUrCrUrArGrGrArUrGrUrArCrUrGrUdTdT / antisense rArCrArGrUrArCrArUrCrCrUrArGrArUrUrUrGdTdG | 79.4
9 | sense rArCrUrUrUrCrUrUrArUrUrUrArArUrUrUrUrGdTdT / antisense rCrArArArArUrUrArArArUrArArGrArArArGrUdTdA | 43.6
10 | sense rUrGrCrCrArUrGrCrArUrCrArGrArUrArArUrGdTdT / antisense rCrArUrUrArUrCrUrGrArUrGrCrArUrGrGrCrAdTdA | 59.7
11 | sense rArGrGrArUrGrUrArCrUrGrUrCrUrUrGrUrUrGdTdT / antisense rCrArArCrArArGrArCrArGrUrArCrArUrCrCrUdAdG | 81.7
12 | sense rUrGrCrUrGrUrUrGrCrCrCrArArArUrUrArUrAdTdT / antisense rUrArUrArArUrUrUrGrGrGrCrArArCrArGrCrAdAdG | 85.6
13 | sense rUrArCrUrGrGrArUrGrArCrUrGrGrCrCrArGrGdTdT / antisense rCrCrUrGrGrCrCrArGrUrCrArUrCrCrArGrUrAdGdA | 55.2
14 | sense rCrArUrUrUrArArArCrUrUrGrCrUrGrUrUrGrCdTdT / antisense rGrCrArArCrArGrCrArArGrUrUrUrArArArUrGdTdA | 74.6
15 | sense rUrGrUrGrArArCrArArCrCrUrArArUrGrCrArUdTdT / antisense rArUrGrCrArUrUrArGrGrUrUrGrUrUrCrArCrAdAdT | 75.4
16 | sense rArUrArArArArUrUrGrArArArGrGrArArUrUrGdTdT / antisense rCrArArUrUrCrCrUrUrUrCrArArUrUrUrUrArUdCdT | 36.4
17 | sense rUrGrArArArArUrGrArCrArGrCrCrUrUrArArAdTdT / antisense rUrUrUrArArGrGrCrUrGrUrCrArUrUrUrUrCrAdAdG | 78.8
18 | sense rArGrArUrUrGrGrGrUrArArUrGrGrArArCrArCdTdT / antisense rGrUrGrUrUrCrCrArUrUrArCrCrCrArArUrCrUdGdT | 72
19 | sense rUrGrUrGrGrArUrCrUrGrCrCrUrUrArUrUrGrCdTdT / antisense rGrCrArArUrArArGrGrCrArGrArUrCrCrArCrAdGdC | 68.8
20 | sense rGrArArArGrGrArArUrUrGrUrArUrArArArUrCdTdT / antisense rGrArUrUrUrArUrArCrArArUrUrCrCrUrUrUrCdAdA | 51.4
21 | sense rCrUrArCrArUrUrUrArArArCrUrUrGrCrUrGrUdTdT / antisense rArCrArGrCrArArGrUrUrUrArArArUrGrUrArGdGdA | 82.5
22 | sense rUrUrArArUrUrCrArCrArUrGrArCrUrUrGrArGdTdT / antisense rCrUrCrArArGrUrCrArUrGrUrGrArArUrUrArAdCdA | 54.4
23 | sense rUrCrUrUrArUrUrUrArArUrUrUrUrGrGrUrCrUdTdT / antisense rArGrArCrCrArArArArUrUrArArArUrArArGrAdAdA | 44.2

Target: UBE2H
Assay: reporter assay of Huesken 2005
Conditions: siRNA

Row | Substance | normalised inhibition (eCFP-eYFP dual reporter) [%]
24 | sense rGrArGrUrArUrGrGrArArArGrUrUrArGrArGrUdTdT / antisense rArCrUrCrUrArArCrUrUrUrCrCrArUrArCrUrCdCdG | 83.6
25 | sense rCrGrCrCrArCrGrGrArGrGrArGrGrCrGrCrUrGdTdT / antisense rCrArGrCrGrCrCrUrCrCrUrCrCrGrUrGrGrCrGdTdA | 66.8
26 | sense rArUrUrGrGrCrCrUrArUrCrCrUrArArCrCrCrCdTdT / antisense rGrGrGrGrUrUrArGrGrArUrArGrGrCrCrArArUdAdA | 36.2
27 | sense rArArCrCrCrCrArUrArGrArUrCrCrUrCrUrCrAdTdT / antisense rUrGrArGrArGrGrArUrCrUrArUrGrGrGrGrUrUdAdG | 49.4
28 | sense rArArArUrCrUrCrCrArUrCrUrArUrArGrGrArUdTdT / antisense rArUrCrCrUrArUrArGrArUrGrGrArGrArUrUrUdGdA | 96.4
29 | sense rUrUrArUrGrGrArCrCrArCrArArGrGrArArCrAdTdT / antisense rUrGrUrUrCrCrUrUrGrUrGrGrUrCrCrArUrArAdAdA | 91.7
30 | sense rCrCrArUrArUrGrArArGrGrCrGrGrArGrUrArUdTdT / antisense rArUrArCrUrCrCrGrCrCrUrUrCrArUrArUrGrGdTdG | 102
31 | sense rGrArCrGrCrUrGrCrArGrCrCrArUrGrUrArCrCdTdT / antisense rGrGrUrArCrArUrGrGrCrUrGrCrArGrCrGrUrCdAdC | 55.3
32 | sense rArGrUrGrGrArCrCrUrArCrCrUrGrArUrArArAdTdT / antisense rUrUrUrArUrCrArGrGrUrArGrGrUrCrCrArCrUdCdT | 108
33 | sense rArUrGrGrUrGrArCrGrCrUrGrCrArGrCrCrArUdTdT / antisense rArUrGrGrCrUrGrCrArGrCrGrUrCrArCrCrArUdTdG | 86.6
34 | sense rArGrGrArArCrUrGrUrGrUrGrUrCrUrArGrArUdTdT / antisense rArUrCrUrArGrArCrArCrArCrArGrUrUrCrCrUdGdA | 100
35 | sense rArUrCrUrArUrArGrGrArUrUrCrArUrGrArArUdTdT / antisense rArUrUrCrArUrGrArArUrCrCrUrArUrArGrArUdGdG | 95.3
36 | sense rGrArArCrUrGrUrGrUrGrUrCrUrArGrArUrGrUdTdT / antisense rArCrArUrCrUrArGrArCrArCrArCrArGrUrUrCdCdT | 98.4
37 | sense rGrArGrGrUrUrArCrGrArUrCrCrUrGrGrGrArGdTdT / antisense rCrUrCrCrCrArGrGrArUrCrGrUrArArCrCrUrCdAdT | 57.3
38 | sense rCrArArGrGrArArCrArCrCrArUrArUrGrArArGdTdT / antisense rCrUrUrCrArUrArUrGrGrUrGrUrUrCrCrUrUrGdTdG | 99.5
39 | sense rArGrArGrGrGrUrArCrCrGrGrGrGrArCrArGrCdTdT / antisense rGrCrUrGrUrCrCrCrCrGrGrUrArCrCrCrUrCrUdTdC | 65
40 | sense rGrArArUrUrUrGrUrArGrUrGrArArGrUrUrUrUdTdT / antisense rArArArArCrUrUrCrArCrUrArCrArArArUrUrCdAdT | 96.7
41 | sense rUrCrArGrUrUrArUrUrGrGrCrCrUrArUrCrCrUdTdT / antisense rArGrGrArUrArGrGrCrCrArArUrArArCrUrGrAdGdG | 66.6
42 | sense rArUrArGrGrArUrUrCrArUrGrArArUrArArArAdTdT / antisense rUrUrUrUrArUrUrCrArUrGrArArUrCrCrUrArUdAdG | 106
43 | sense rUrGrUrArCrCrUrCrCrArCrCrGrArCrCrArGrAdTdT / antisense rUrCrUrGrGrUrCrGrGrUrGrGrArGrGrUrArCrAdTdG | 95.7
44 | sense rCrArGrGrArArGrArGrGrGrUrArCrCrGrGrGrGdTdT / antisense rCrCrCrCrGrGrUrArCrCrCrUrCrUrUrCrCrUrGdTdT | 74.7
45 | sense rCrArArUrArUrArUrUrUrGrArGrUrCrCrUrUrCdTdT / antisense rGrArArGrGrArCrUrCrArArArUrArUrArUrUrGdGdT | 84.2
46 | sense rGrUrGrGrArCrCrUrArCrCrUrGrArUrArArArUdTdT / antisense rArUrUrUrArUrCrArGrGrUrArGrGrUrCrCrArCdTdC | 77.9
47 | sense rCrGrArGrArGrUrArArArCrArUrGrArGrGrUrUdTdT / antisense rArArCrCrUrCrArUrGrUrUrUrArCrUrCrUrCrGdAdT | 98
48 | sense rArArCrArCrCrArUrArUrGrArArGrGrCrGrGrAdTdT / antisense rUrCrCrGrCrCrUrUrCrArUrArUrGrGrUrGrUrUdCdC | 67.8
49 | sense rArCrArGrCrUrCrUrCrUrArUrGrArUrCrUrUrAdTdT / antisense rUrArArGrArUrCrArUrArGrArGrArGrCrUrGrUdCdC | 95.8
50 | sense rGrGrUrGrArCrGrCrUrGrCrArGrCrCrArUrGrUdTdT / antisense rArCrArUrGrGrCrUrGrCrArGrCrGrUrCrArCrCdAdT | 91
51 | sense rArArGrUrUrArGrArGrUrGrGrArCrCrUrArCrCdTdT / antisense rGrGrUrArGrGrUrCrCrArCrUrCrUrArArCrUrUdTdC | 64.2
52 | sense rUrArUrArGrGrArUrUrCrArUrGrArArUrArArAdTdT / antisense rUrUrUrArUrUrCrArUrGrArArUrCrCrUrArUrAdGdA | 67.9
